Literature values as cited in patent publication US12465589B2, “Method and composition for treating CNS disorders” (IGC Pharma IP, LLC, priority 2018, dated 2025).

Legend:
[1] = system: acetylcholinesterase (AChE); conditions: THC 50 micromolar
[2] = literature reports
Aβ protein = Aβ protein (Homo sapiens, UniProt P05067); conditions: in vitro
AD patients = conditions: supplementation

Chain of Aβ protein (P05067 672-713 limits assumed): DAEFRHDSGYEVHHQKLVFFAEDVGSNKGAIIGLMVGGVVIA

In the case of CCCCCc1cc(O)c2c(c1)OC(C)(C)[C@@H]1CCC(C)=C[C@@H]21 [THC, Δ9-tetrahydrocannabinol], the “AChE-induced amyloid β-peptide (Aβ) aggregation” value [1] is given as “prevents”, the “inhibition of acetylcholinesterase (AChE)” value [1] is given as “competitively inhibits” and the “side effects of ingestion” value [2] is given as “acute psychotic reactions, anxiety, impaired neuropsychological performance, impaired memory, executive functioning disorder, mitochondrial dysfunction, neuron apoptosis”.

For COc1cc(/C=C/C(=O)CC(=O)/C=C/c2ccc(O)c(OC)c2)ccc1O [curcumin], the “aggregation of Aβ” value (Aβ protein) is listed as “prevent the aggregation of Aβ” and the “binding to Aβ protein” value (Aβ protein) is listed as “bind to Aβ protein”.

In the case of COc1ccc2[nH]cc(CCNC(C)=O)c2c1 [melatonin, N-acetyl-5-methoxytryptamine], the circadian rhythmicity (AD patients) is given as “improve circadian rhythmicity” and the memory (AD patients) is given as “beneficial effects on memory”.
